# Molecular target: T1, Human Factor D (Homo sapiens, UniProt P00746)
# T1 construct: purified from human serum; purchased Complement Technology, Inc; host or cells: human serum (natural protein, not recombinant)
# Experiment: Human Factor D Assay
# Type: biochemical
# Conditions: not given
# Protocol: Example 8. Human Factor D Assay
# Human Factor D (purified from human serum, Complement Technology, Inc.) at 80 nM final concentration is incubated with test compound at various concentrations for 5 minutes at room temperature in 50 mM Tris, 1M NaCl, pH 7.5. A synthetic substrate Z-L-Lys-SBzl and DTNB (Ellman's reagent) are added to final concentrations of 100 μM each. Absorbance at 405 nm (A405) is recorded at 30 second intervals for 30 minutes using a microplate spectrophotometer. IC50 values are calculated by nonlinear regression of complement Factor D reaction rates as a function of test compound concentration.
# T1 sequence (P00746 26-253): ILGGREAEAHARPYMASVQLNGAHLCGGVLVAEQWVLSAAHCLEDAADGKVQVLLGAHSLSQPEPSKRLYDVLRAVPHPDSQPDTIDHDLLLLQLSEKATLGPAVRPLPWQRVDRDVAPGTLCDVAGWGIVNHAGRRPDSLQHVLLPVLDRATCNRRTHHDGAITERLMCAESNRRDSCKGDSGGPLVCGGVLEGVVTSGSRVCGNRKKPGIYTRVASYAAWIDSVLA
row,SMILES,IC50
1,CC(=O)c1cn(CC(=O)N2C[C@H](F)C[C@H]2C(=O)Nc2cccc(Br)n2)c2ccc(OCCSCC3(C)COC3)cc12 [Cmp 5],< 1000 nM

# Same assay, conditions: Table 1; Human Factor D 80 nM, substrate Z-L-Lys-SBzl; read-out: IC50
row,SMILES,IC50
1,"CC(=O)c1cn(CC(=O)N2C[C@H](F)C[C@H]2CNS(=O)(=O)c2cccc(Cl)c2F)c2cc(OCP(=O)(O)O)ccc12 [Compound 22, (3-acetyl-1-(2-((2S,4R)-2-((3-chloro-2-fluorophenylsulfonamido)methyl)-4-fluoropyrrolidin-1-yl)-2-oxoethyl)-1H-indol-6-yloxy)methylphosphonic acid]",< 1000 nM
2,"CC(=O)c1cn(CC(=O)N2C[C@H](F)C[C@H]2C(=O)Nc2cccc(-c3ccccc3Cl)c2F)c2ccc(Oc3ncc(F)cn3)cc12 [Compound 37, (2S,4R)-1-(2-(3-acetyl-5-(5-fluoropyrimidin-2-yloxy)-1H-indol-1-yl)acetyl)-N-(2′-chloro-2-fluorobiphenyl-3-yl)-4-fluoropyrrolidine-2-carboxamide]",< 1000 nM
3,"CC(=O)c1cn(CC(=O)N2C[C@H](F)C[C@H]2C(=O)Nc2cccc(Br)n2)c2ccc(Oc3ncc(Br)cn3)cc12 [Compound 35, (2S,4R)-1-(2-(3-acetyl-5-(5-bromopyrimidin-2-yloxy)-1H-indol-1-yl)acetyl)-N-(6-bromopyridin-2-yl)-4-fluoropyrrolidine-2-carboxamide]",< 1000 nM
4,"CCCCCCCCCCCCCCCCOCCCOP(=O)(O)COc1ccc2c(C(C)=O)cn(CC(=O)N3C[C@H](F)C[C@H]3C(=O)NCc3cccc(Cl)c3F)c2c1 [Compound 20, 3-(hexadecyloxy)propyl hydrogen (3-acetyl-1-(2-((2S,4R)-2-(3-chloro-2-fluorobenzylcarbamoyl)-4-fluoropyrrolidin-1-yl)-2-oxoethyl)-1H-indol-6-yloxy)methylphosphonate]",< 1000 nM
5,"CC(=O)c1cn(CC(=O)N2C[C@H](F)C[C@H]2C(=O)Nc2cccc(-c3ccccc3Cl)c2F)c2ccc(Oc3ncc(Br)cn3)cc12 [Compound 33, (2S,4R)-1-(2-(3-Acetyl-5-((5-bromopyrimidin-2-yl)oxy)-1H-indol-1-yl)acetyl)-N-(2′-chloro-2-fluoro-[1,1′-biphenyl]-3-yl)-4-fluoropyrrolidine-2-carboxamide]",< 1000 nM
6,"CC(=O)c1cn(CC(=O)N2C[C@H](F)C[C@H]2C(=O)NCc2cccc(Cl)c2F)c2cc(OCC3CC3)ccc12 [Compound 1, (2S,4R)-1-(2-(3-acetyl-6-(cyclopropylmethoxy)-1H-indol-1-yl)acetyl)-N-(3-chloro-2-fluorobenzyl)-4-fluoropyrrolidine-2-carboxamide]",< 1000 nM
7,"CC(=O)c1cn(CC(=O)N2C[C@H](F)C[C@H]2C(=O)NCc2cccc(Cl)c2F)c2ccc(OCP(=O)(O)O)cc12 [Compound 11, (((3-acetyl-1-(2-((2S,4R)-2-((3-chloro-2-fluorobenzyl)carbamoyl)-4-fluoropyrrolidin-1-yl)-2-oxoethyl)-1H-indol-5-yl)oxy)methyl)phosphonic acid]",< 1000 nM
8,"CC(=O)c1cn(CC(=O)N2C[C@H](F)C[C@H]2C(=O)Nc2cccc(-c3ccccc3Cl)c2F)c2ccc(Oc3cnc(C#N)nc3)cc12 [Compound 36, (2S,4R)-1-(2-(3-acetyl-5-(2-cyanopyrimidin-5-yloxy)-1H-indol-1-yl)acetyl)-N-(2′-chloro-2-fluorobiphenyl-3-yl)-4-fluoropyrrolidine-2-carboxamide]",< 1000 nM
9,"CC(=O)c1cn(CC(=O)N2C[C@H](F)C[C@H]2C(=O)Nc2cccc(OC(F)(F)F)c2F)c2cc(OCP(=O)(O)O)ccc12 [Compound 27, (3-acetyl-1-(2-((2S,4R)-4-fluoro-2-(2-fluoro-3-(trifluoromethoxy)phenylcarbamoyl)pyrrolidin-1-yl)-2-oxoethyl)-1H-indol-6-yloxy)methylphosphonic acid]",< 1000 nM

# Same assay, conditions: Table 2; Human Factor D 80 nM, substrate Z-L-Lys-SBzl; read-out: IC50
row,SMILES,IC50
1,CC(=O)c1cn(CC(=O)N2C[C@H](F)C[C@H]2C(=O)Nc2cccc(-c3ccccc3Cl)c2F)c2ccc(O[C@@H]3CO[C@H]4[C@@H]3OC[C@H]4O)cc12 [Compound 44],< 1000 nM

# Same assay, conditions: Table 3; Human Factor D 80 nM, substrate Z-L-Lys-SBzl; read-out: (IC50 (Stars))
row,SMILES,IC50
1,"CC(=O)c1cn(CC(=O)N2C[C@H](F)C[C@H]2C(=O)NCCc2ccccc2)c2ccc(OCS(N)(=O)=O)cc12 [Compound 133, (2S,4R)-1-(2-(3-Acetyl-5-(sulfamoylmethoxy)-1H-indol-1-yl)acetyl)-4-fluoro-N-phenethylpyrrolidine-2-carboxamide]",1000 to 10000 nM
2,CC(=O)c1cn(CC(=O)N2C[C@H](F)C[C@H]2C(=O)Nc2cccc(Br)n2)c2ccc(OCC[S+]([O-])CC3(C)COC3)cc12 (some centres unmarked) [Cmp 4],< 1000 nM
3,"CC(=O)c1nn(CC(=O)N2C[C@H](F)C[C@H]2C(=O)Nc2cccc(Br)n2)c2ccc(O[C@@H]3CO[C@H]4[C@@H]3OC[C@H]4O)cc12 [Compound 200, (2S,4R)-1-(2-(3-acetyl-5-(((3R,3aR,6R,6aR)-6-hydroxy-hexahydrofuro[3,2-b]furan-3-yl)oxy)-1H-indazol-1-yl)acetyl)-N-(6-bromopyridin-2-yl)-4-fluoropyrrolidine-2-carboxamide]",< 1000 nM
4,"CC(=O)c1nn(CC(=O)N2C[C@H](F)C[C@H]2C(=O)Nc2cccc(Br)n2)c2ccc(Oc3cnc(C)cn3)cc12 [Compound 175, (2S,4R)-1-(2-(3-Acetyl-5-((5-methylpyrazin-2-yl)oxy)-1H-indazol-1-yl)acetyl)-N-(6-bromopyridin-2-yl)-4-fluoropyrrolidine-2-carboxamide]",< 1000 nM
5,"CC(=O)c1nn(CC(=O)N2C[C@H](F)C[C@H]2C(=O)Nc2ccc(F)c(Br)n2)c2ccc(Oc3cnc(C)cn3)cc12 [Compound 178, (2S,4R)-1-(2-(3-Acetyl-5-((5-methylpyrazin-2-yl)oxy)-1H-indazol-1-yl)acetyl)-N-(6-bromo-5-fluoropyridin-2-yl)-4-fluoropyrrolidine-2-carboxamide]",< 1000 nM
6,"CC(=O)c1cn(CC(=O)N2C[C@H](F)C[C@H]2C(=O)NCCCCc2ccccc2)c2ccc(OCP(=O)(O)O)cc12 [Compound 151, (((3-Acetyl-1-(2-((2S,4R)-4-fluoro-2-((4-phenylbutyl)carbamoyl)pyrrolidin-1-yl)-2-oxoethyl)-1H-indol-5-yl)oxy)methyl)phosphonic acid]",> 10000 nM
7,"CC(=O)c1cn(CC(=O)N2[C@@H]3C[C@@H]3C[C@H]2C(=O)Nc2cncc(Br)n2)c2ccc(Oc3ncc(F)cn3)cc12 [Compound 165, (1R,3S,5R)-2-(2-(3-Acetyl-5-((5-fluoropyrimidin-2-yl)oxy)-1H-indol-1-yl)acetyl)-N-(6-bromopyrazin-2-yl)-2-azabicyclo[3.1.0]hexane-3-carboxamide]",< 1000 nM
8,"CC(=O)c1nn(CC(=O)N2C[C@H](F)C[C@H]2C(=O)Nc2cccc(Br)n2)c2ccc(Oc3ncc(C)cn3)cc12 [Compound 169, (2S,4R)-1-(2-(3-Acetyl-5-((5-methylpyrimidin-2-yl)oxy)-1H-indazol-1-yl)acetyl)-N-(6-bromopyridin-2-yl)-4-fluoropyrrolidine-2-carboxamide]",< 1000 nM
9,"CC(=O)c1cn(CC(=O)N2C[C@H](F)C[C@H]2C(=O)NCCCCc2ccccc2)c2ccc(OCS(N)(=O)=O)cc12 [Compound 139, (2S,4R)-1-(2-(3-Acetyl-5-(sulfamoylmethoxy)-1H-indol-1-yl)acetyl)-4-fluoro-N-(4-phenylbutyl)pyrrolidine-2-carboxamide]",1000 to 10000 nM
10,"CC(=O)c1nn(CC(=O)N2C[C@H](F)C[C@H]2C(=O)Nc2cncc(Br)n2)c2ccc(Oc3ncc(C)cn3)cc12 [Compound 167, (2S,4R)-1-(2-(3-Acetyl-5-((5-methylpyrimidin-2-yl)oxy)-1H-indazol-1-yl)acetyl)-N-(6-bromopyrazin-2-yl)-4-fluoropyrrolidine-2-carboxamide]",< 1000 nM
11,"CC(=O)c1cn(CC(=O)N2C[C@H](F)C[C@H]2C(=O)NCc2cccc(Cl)c2F)c2ccc(OCS(N)(=O)=O)cc12 [Compound 141, (2S,4R)-1-(2-(3-Acetyl-5-(sulfamoylmethoxy)-1H-indol-1-yl)acetyl)-N-(3-chloro-2-fluorobenzyl)-4-fluoropyrrolidine-2-carboxamide]",< 1000 nM
12,"CC(=O)c1nn(CC(=O)N2C[C@H](F)C[C@H]2C(=O)Nc2ccc(F)c(Br)n2)c2ccc(Oc3ncc(C)cn3)cc12 [Compound 176, (2S,4R)-1-(2-(3-Acetyl-5-((5-methylpyrimidin-2-yl)oxy)-1H-indazol-1-yl)acetyl)-N-(6-bromo-5-fluoropyridin-2-yl)-4-fluoropyrrolidine-2-carboxamide]",< 1000 nM
13,"CC(=O)c1cn(CC(=O)N2C[C@H](F)C[C@H]2C(=O)NCc2ccccc2)c2ccc(OCP(=O)(O)O)cc12 [Compound 145, (((3-Acetyl-1-(2-((2S,4R)-2-(benzylcarbamoyl)-4-fluoropyrrolidin-1-yl)-2-oxoethyl)-1H-indol-5-yl)oxy)methyl)phosphonic acid]",1000 to 10000 nM
14,"CC(=O)c1cn(CC(=O)N2C[C@H](F)C[C@H]2CCNS(=O)(=O)c2ccccc2)c2ccc(OCP(=O)(O)O)cc12 [Compound 159, (((3-Acetyl-1-(2-((2R,4R)-4-fluoro-2-(2-(phenylsulfonamido)ethyl)pyrrolidin-1-yl)-2-oxoethyl)-1H-indol-5-yl)oxy)methyl)phosphonic acid]",> 10000 nM
15,"CC(=O)c1cn(CC(=O)N2C[C@H](F)C[C@H]2C(=O)Nc2cccc(-c3ccccc3Cl)c2F)c2ccc(OCC[S+]([O-])CC3(C)COC3)cc12 (stereo partly drawn) [Compound 252, (2S,4R)-1-(2-(3-acetyl-5-(2-((3-methyloxetan-3-yl)methylsulfinyl)ethoxy)-1H-indol-1-yl)acetyl)-N-(2′-chloro-2-fluorobiphenyl-3-yl)-4-fluoropyrrolidine-2-carboxamide]",< 1000 nM

# Source: patent US10385097B2, “Ether compounds for treatment of medical disorders” (Achillion Pharmaceuticals, Inc., priority 2015, dated 2019)
